Series [1] has as its system Nucleic Acid. Nature of the series: Induction of pEGFP-N1 plasmid DNA interstrand cross-linking at 20 uM after 2 hrs by alkaline agarose gel shift assay. It is filed as nucleic-acid assay. A general note: Mobility shift assays separate free from complexed probe on a gel.
Series [2] in a line: Cytotoxicity against human U87 cells after 72 hrs by WST-1 assay. Type of series: functional, cell-based, U-87MG ATCC. The settings on record: U-87 MG. On the technique in general: Formazan colour is commonly taken as a measure of viable cells.
Series [3] deals with CCRF-CEM. The series is described as follows: Cytotoxicity against human vinblastine-resistant CCRF-CEM cells after 72 hrs by XTT assay. It is filed as functional, cell-based.
The subject of series [4] is PC-3. The series is described as follows: Cytotoxicity against human PC3 cells after 72 hrs by WST-1 assay. Type of series: functional, cell-based. The conditions noted are these: PC-3, 72 h.
Series [5] relates to SK-OV-3. Nature of the series: Antitumor activity in human SKOV3 cells xenografted athymic nu/nu mouse assessed as tumor suppression at 50 mg/kg, iv administered daily once for 3 days measured after 22 days relative to control. It is filed as functional.
For series [6], the system named is CCRF-CEM. The series is described as follows: Cross-resistance, IC50 for human vinblastine-resistant CCRF-CEM cells to IC50 for human CCRF-CEM cells. Type of series: functional.
Series [7] in a line: Cytotoxicity against human H1299 cells after 72 hrs by WST-1 assay. It is filed as functional, cell-based. The conditions noted are these: NCI-H1299, 72 h.
A further series relates to Mus musculus. Nature of the series: Toxicity in human PC3 cells xenografted athymic nu/nu mouse assessed as weight loss at 50 mg/kg, iv administered daily once for 4 days measured after day 14 to day 32 relative to control. Type of series: organism-based, PC-3. On the set-up: dose 50 mg/kg, route intravenous. The conditions noted are these: in vivo, 96 h.
The nature of series [8]: Cytotoxicity against human OECM1 cells after 72 hrs by WST-1 assay. The conditions noted are these: OECM1, 72 h. Type of series: functional, cell-based.
Series [9] has as its system Nucleic Acid. The series is described as follows: Induction of pEGFP-N1 plasmid DNA interstrand cross-linking at 10 uM after 2 hrs by alkaline agarose gel shift assay. Type of series: nucleic-acid assay.
The subject of series [10] is MX1. The series is described as follows: Antitumor activity in human MX1 cells xenografted athymic nu/nu mouse assessed as complete remission of tumor at 50 mg/kg, iv administered daily once for 3 days. Type of series: functional, organism-based. On the set-up: dose 50 mg/kg. Background: A xenograft is tissue or cells of one species grown in another, often human tumour cells in immunodeficient mice.

The next series deals with HCT-116. Nature of the series: Cytotoxicity against human HCT116 cells after 72 hrs by SRB assay. The settings on record: HCT-116, 72 h. It is filed as functional, cell-based.
The test system of series [11] is MX1. The series is described as follows: Antitumor activity in human MX1 cells xenografted athymic nu/nu mouse assessed as tumor re-growth at 50 mg/kg, iv administered daily once for 3 days measured after 24 days of tumor implantation. Type of series: functional, organism-based. Further details: dose 50 mg/kg.
For series [12], the system named is CCRF-CEM. Nature of the series: Cytotoxicity against human CCRF-CEM cells after 72 hrs by XTT assay. The settings on record: read-out: IC50. Type of series: functional, cell-based.
Series [13] is described as follows: Toxicity in athymic nu/nu mouse assessed as maximum tolerated dose. Type of series: organism-based. The conditions noted are these: in vivo, read-out: Activity.
Series [14] has as its system CCRF-CEM. Nature of the series: Cross-resistance, IC50 for human taxol-resistant CCRF-CEM cells to IC50 for human CCRF-CEM cells. It is filed as functional.
The test system of series [15] is MX1. The series is described as follows: Cytotoxicity against human MX1 cells after 72 hrs by SRB assay. It is filed as functional, cell-based. The settings on record: MX1, 72 h.
The subject of series [16] is MX1. The series is described as follows: Antitumor activity in human MX1 cells xenografted athymic nu/nu mouse assessed as complete remission of tumor at 15 mg/kg, iv administered daily twice for 4 days. Type of series: functional, organism-based. Further details: dose 15 mg/kg.
Series [17] concerns Nucleic Acid. Nature of the series: Induction of pEGFP-N1 plasmid DNA interstrand cross-linking at 1 uM after 2 hrs by alkaline agarose gel shift assay. Type of series: nucleic-acid assay.
For series [18], the system named is PC-3. Nature of the series: Antitumor activity in human PC3 cells xenografted athymic nu/nu mouse assessed as complete tumor suppression at 50 mg/kg, iv administered daily once for 4 days measured after day 14 to day 32. It is filed as functional, organism-based. On the set-up: dose 50 mg/kg.
In series [19] the test system is MX1. The series is described as follows: Antitumor activity in human MX1 cells xenografted athymic nu/nu mouse assessed as complete remission of tumor at 5 mg/kg, iv administered daily once for 3 days. On the set-up: dose 5 mg/kg. It is filed as functional, organism-based.
For series [20], the system named is CCRF-CEM. The series is described as follows: Cytotoxicity against human taxol-resistant CCRF-CEM cells after 72 hrs by XTT assay. It is filed as functional, cell-based.
The test system of series [21] is MX1. The series is described as follows: Antitumor activity in human MX1 cells xenografted athymic nu/nu mouse assessed as complete remission of tumor at 18 mg/kg, iv administered daily twice for 2 days. It is filed as functional, organism-based. On the set-up: dose 18 mg/kg.
In series [22] the test system is MX1. Nature of the series: Antitumor activity in human MX1 cells xenografted athymic nu/nu mouse assessed as complete remission of tumor at 50 mg/kg, iv administered daily once for 3 days measured after 24 days of tumor implantation. It is filed as functional, organism-based. Further details: dose 50 mg/kg.
Series [23] has as its system SK-OV-3. The series is described as follows: Antitumor activity in human SKOV3 cells xenografted athymic nu/nu mouse assessed as tumor suppression at 20 mg/kg, iv administered daily once for 4 days measured after 22 days relative to control. It is filed as functional.
In series [24] the test system is MX1. Nature of the series: Antitumor activity in human MX1 cells xenografted athymic nu/nu mouse assessed as tumor re-growth at 18 mg/kg, iv administered daily twice for 2 days measured after 40 days of tumor implantation. Type of series: functional, organism-based. On the set-up: dose 18 mg/kg.

Calls of active or inactive are those of the source. No cut-off for these calls is given here.

Experimental findings from ChEMBL document CHEMBL1152415, “Potent antitumor bifunctional DNA alkylating agents, synthesis and biological activities of 3a-aza-cyclopenta[a]indenes” (Bioorg Med Chem, 2009) are described below.

What is called IC50 is the point on the concentration scale where inhibition reaches its midpoint. In the case of `CCc1c(CO)c(CO)c2n1-c1ccccc1C2`, the outcome in the series on Nucleic Acid [1], in the series with Nucleic Acid [9], in the series with MX1 [10], in the series with MX1 [16], with Nucleic Acid [17] and with PC-3 [18] was Active. The outcome in the series on MX1 [19], in the series with MX1 [21] and with MX1 [22] was Active. Also, the IC50 in series [2] was determined as 18200 nM; in the series with CCRF-CEM [3], 230 nM; in the series with PC-3 [4], 16600 nM; in series [7], 14100 nM; in series [8], 1240 nM; with HCT-116, 830 nM. The figures for the IC50 with CCRF-CEM [12], in the series on MX1 [15] and with CCRF-CEM [20] were 360 nM, 1100 nM and 140 nM, respectively. Besides, the results for the Activity in the series with SK-OV-3 [5] and with Mus musculus were 78% and 15%, respectively. The entries for the “Ratio IC50” value in the series on CCRF-CEM [6] and in the series with CCRF-CEM [14] were 0.64 and 0.39, respectively. Also, in the series with MX1 [11], the result was inactive. Further, in series [13], the MTD is 50 mg/kg.

In the case of `Cc1c(CO)c(CO)c2n1-c1ccccc1C2`, the result with Nucleic Acid [1], with Nucleic Acid [9], in the series with MX1 [10], with MX1 [16], in the series on Nucleic Acid [17] and with MX1 [19] was Active. Also, the outcome in the series on MX1 [21] was Active. For the same compound, the IC50 in [2] stood at 19300 nM; in the series on CCRF-CEM [3] it was 67 nM; with PC-3 [4] it was 19700 nM; in [7] it was 15200 nM; in series [8], 860 nM; in the series on HCT-116, 340 nM. The IC50 was determined as 10 nM in the series with CCRF-CEM [12], 360 nM in the series with MX1 [15] and 32 nM with CCRF-CEM [20]. For the same compound, the MTD in series [13] worked out at 18 mg/kg. Moreover, the Activity with SK-OV-3 [23] is reported as 53%. Also, the outcome in the series on MX1 [24] was inactive.
